# From patent publication US20250270213A1, “PI3Ka INHIBITORS” (Synnovation Therapeutics, Inc., priority 2022, published 2025)
# Tested on: T47D (PIK3CA H1047R) cells
# Experiment: pS473 AKT assay with 2.5% FBS, T47D cells
# Assay type: cell-based
# Conditions: Homo sapiens, pSer473 AKT, DMEM with 2.5% FBS, 2 h treatment, read-out: T47D_IC50
# Method: Example B. pS473 AKT Assay Protocol with 2.5% FBS
# T47D (PIK3CA H1047R) cells were cultured using 10-cm petri dishes with recommended medium plus 10% fetal bovine serum. One day before the assay, cells were seeded in 96-well plates. After overnight incubation, the medium was changed to DMEM with 2.5% fetal bovine serum (FBS) and the cells were treated with different concentrations of the compounds for 2 h. Cells were then fixed using 4% paraformaldehyde at room temperature for 20 min. Aspirate 4% paraformaldehyde, and wash cells using 1× regular phosphate buffered saline 3 times, 5 min each. Aspirate any residual phosphate buffered saline and block cells using 10% goat serum containing 1% bovine serum albumin and 0.3% Triton X-100 at room temperature for 1 h. Without any additional washing, primary antibodies (rabbit anti-pSer473 AKT) were diluted using blocking buffer and added at a final volume of 50 microliter per well. Keep assay plates with primary antibodies overnight at 4° C. Wash cells using 1× regular phosphate buffered saline 3 times, 5 min each. After the final wash, incubate cells with horseradish peroxidase-conjugated secondary antibodies (goat Anti-rabbit IgG) diluted using the same blocking buffer at room temperature for 1 h. Wash cells thoroughly using 1× regular phosphate buffered saline 3 times, 5 min each. Aspirate any residual phosphate buffered saline. Add Super-Signal ELISA Pico Chemiluminescent Substrate at a final volume of 100 microliter per well. Read plates on i3x Multi-Mode Microplate Reader and calculate IC50 values using GraphPad Prism software.
row,Structure (SMILES),IC50 [nM]
1,"Cc1cc(C(C)Nc2ccc(Cl)nc2-c2noc(=O)[nH]2)c2c(c1)c(=O)n(C)c1c2cnn1C1CCCC1 (stereo not shown) [Compound 61, 3-(6-Chloro-3-((1-(3-cyclopentyl-4,7-dimethyl-5-oxo-4,5-dihydro-3H-pyrazolo[3,4-c]isoquinolin-9-yl)ethyl)amino)pyridin-2-yl)-1,2,4-oxadiazol-5(4H)-one]",< 1000
2,"Cc1cc(C(C)Nc2ccc(Cl)nc2-c2noc(=O)[nH]2)c2c(c1)c(=O)n(C)c1c2cnn1C(C)C (stereo not shown) [Compound 62, 3-(6-Chloro-3-((1-(3-isopropyl-4,7-dimethyl-5-oxo-4,5-dihydro-3H-pyrazolo[3,4-c]isoquinolin-9-yl)ethyl)amino)pyridin-2-yl)-1,2,4-oxadiazol-5(4H)-one]",< 1000
3,"CCn1ncc2c3c(C(C)Nc4ccc(Cl)nc4-c4noc(=O)[nH]4)cc(Cl)cc3c(=O)n(C)c21 (stereo not shown) [Compound 63, 3-(6-Chloro-3-((1-(7-chloro-3-ethyl-4-methyl-5-oxo-4,5-dihydro-3H-pyrazolo[3,4-c]isoquinolin-9-yl)ethyl)amino)pyridin-2-yl)-1,2,4-oxadiazol-5(4H)-one]",< 1000
4,"CC(Nc1ccc(Cl)nc1-c1noc(=O)[nH]1)c1cc(Cl)cc2c(=O)n(C)c3c(cnn3CC3CC3)c12 (stereo not shown) [Compound 64, 3-(6-Chloro-3-((1-(7-chloro-3-(cyclopropylmethyl)-4-methyl-5-oxo-4,5-dihydro-3H-pyrazolo[3,4-c]isoquinolin-9-yl)ethyl)amino)pyridin-2-yl)-1,2,4-oxadiazol-5(4H)-one]",< 1000
5,"CCCn1ncc2c3c(C(C)Nc4ccc(Cl)nc4-c4noc(=O)[nH]4)cc(C)cc3c(=O)n(C)c21 (stereo not shown) [Compound 65, 3-(6-Chloro-3-((1-(4,7-dimethyl-5-oxo-3-propyl-4,5-dihydro-3H-pyrazolo[3,4-c]isoquinolin-9-yl)ethyl)amino)pyridin-2-yl)-1,2,4-oxadiazol-5(4H)-one]",< 1000
6,"Cc1cc(C(C)Nc2ccc(Cl)nc2-c2noc(=O)[nH]2)c2c(c1)c(=O)n(C)c1c2cnn1C1CCOC1 (stereo not shown) [Compound 66, 3-(6-Chloro-3-((1-(4,7-dimethyl-5-oxo-3-(tetrahydrofuran-3-yl)-4,5-dihydro-3H-pyrazolo[3,4-c]isoquinolin-9-yl)ethyl)amino)pyridin-2-yl)-1,2,4-oxadiazol-5(4H)-one]",< 1000
7,"COCCn1ncc2c3c(C(C)Nc4ccc(Cl)nc4-c4noc(=O)[nH]4)cc(C)cc3c(=O)n(C)c21 (stereo not shown) [Compound 67, 3-(6-Chloro-3-((1-(3-(2-methoxyethyl)-4,7-dimethyl-5-oxo-4,5-dihydro-3H-pyrazolo[3,4-c]isoquinolin-9-yl)ethyl)amino)pyridin-2-yl)-1,2,4-oxadiazol-5(4H)-one]",< 1000
8,"Cc1cc(C(C)Nc2ccc(Cl)nc2-c2noc(=O)[nH]2)c2c(c1)c(=O)n(C)c1c2cnn1CC1CC1 (stereo not shown) [Compound 68, 3-(6-Chloro-3-((1-(3-(cyclopropylmethyl)-4,7-dimethyl-5-oxo-4,5-dihydro-3H-pyrazolo[3,4-c]isoquinolin-9-yl)ethyl)amino)pyridin-2-yl)-1,2,4-oxadiazol-5(4H)-one]",< 1000
9,"CCn1ncc2c3c(C(C)Nc4ccc(Cl)nc4-c4noc(=O)[nH]4)cc(C(F)(F)F)cc3c(=O)n(C)c21 (stereo not shown) [Compound 69, 3-(6-Chloro-3-((1-(3-ethyl-4-methyl-5-oxo-7-(trifluoromethyl)-4,5-dihydro-3H-pyrazolo[3,4-c]isoquinolin-9-yl)ethyl)amino)pyridin-2-yl)-1,2,4-oxadiazol-5(4H)-one]",< 1000
10,"Cc1cc(C(C)Nc2ccc(Cl)nc2-c2noc(=O)[nH]2)c2c(c1)c(=O)n1c3c2cnn3C(C)CC1 (stereo not shown) [Compound 70, 3-(6-Chloro-3-((1-(3,8-dimethyl-6-oxo-4,5-dihydro-3H,6H-2,2a,5a-triazaaceanthrylen-10-yl)ethyl)amino)pyridin-2-yl)-1,2,4-oxadiazol-5(4H)-one]",< 1000
11,"CCc1ncn2c3c(C(C)Nc4ccc(Cl)nc4-c4noc(=O)[nH]4)cc(C)cc3c(=O)n(C)c12 (stereo not shown) [Compound 71, 3-(6-Chloro-3-((1-(3-ethyl-4,7-dimethyl-5-oxo-4,5-dihydroimidazo[1,5-a]quinazolin-9-yl)ethyl)amino)pyridin-2-yl)-1,2,4-oxadiazol-5(4H)-one]",< 1000
12,"CCn1ncc2c3c(C(C)Nc4cccnc4-c4nnn[nH]4)cc(C)cc3c(=O)n(C)c21 (stereo not shown) [Compound 72, 9-(1-((2-(1H-Tetrazol-5-yl)pyridin-3-yl)amino)ethyl)-3-ethyl-4,7-dimethyl-3,4-dihydro-5H-pyrazolo[3,4-c]isoquinolin-5-one]",< 1000
13,"CCn1ncc2c3c(C(C)Nc4ccc(Cl)nc4C(=O)NC4CCN(C)CC4)cc(C)cc3c(=O)n(C)c21 (stereo not shown) [Compound 73, 6-Chloro-3-((1-(3-ethyl-4,7-dimethyl-5-oxo-4,5-dihydro-3H-pyrazolo[3,4-c]isoquinolin-9-yl)ethyl)amino)-N-(1-methylpiperidin-4-yl)picolinamide]",< 1000
14,"CCn1ncc2c3c(C(C)Nc4ccc(Cl)nc4C(=O)Nc4ccncc4)cc(C)cc3c(=O)n(C)c21 (stereo not shown) [Compound 74, 6-chloro-3-((1-(3-ethyl-4,7-dimethyl-5-oxo-4,5-dihydro-3H-pyrazolo[3,4-c]isoquinolin-9-yl)ethyl)amino)-N-(pyridin-4-yl)picolinamide]",< 1000
15,"CCn1ncc2c3c(C(C)Nc4ccc(Cl)nc4C(=O)NOC)cc(C)cc3c(=O)n(C)c21 (stereo not shown) [Compound 75, 6-chloro-3-((1-(3-ethyl-4,7-dimethyl-5-oxo-4,5-dihydro-3H-pyrazolo[3,4-c]isoquinolin-9-yl)ethyl)amino)-N-methoxypicolinamide]",< 1000
16,"CCn1ncc2c3c(C(CO)Nc4ccc(Cl)nc4-c4ccncc4F)cc(C)cc3c(=O)n(C)c21 (stereo not shown) [Compound 76, 9-(1-((6-Chloro-3′-fluoro-[2,4′-bipyridin]-3-yl)amino)-2-hydroxyethyl)-3-ethyl-4,7-dimethyl-3,4-dihydro-5H-pyrazolo[3,4-c]isoquinolin-5-one]",< 1000
17,"CCn1ncc2c3c(C(CO)Nc4ccc(Cl)nc4-c4cnn(C)c4)cc(C)cc3c(=O)n(C)c21 (stereo not shown) [Compound 77, 9-(1-((6-Chloro-2-(1-methyl-1H-pyrazol-4-yl)pyridin-3-yl)amino)-2-hydroxyethyl)-3-ethyl-4,7-dimethyl-3,4-dihydro-5H-pyrazolo[3,4-c]isoquinolin-5-one]",< 1000
18,"CCn1ncc2c3c(C(CO)Nc4ccc(Cl)nc4-c4cnn(C)c4C)cc(C)cc3c(=O)n(C)c21 (stereo not shown) [Compound 78, 9-(1-((6-Chloro-2-(1,5-dimethyl-1H-pyrazol-4-yl)pyridin-3-yl)amino)-2-hydroxyethyl)-3-ethyl-4,7-dimethyl-3,4-dihydro-5H-pyrazolo[3,4-c]isoquinolin-5-one]",< 1000
19,"CCn1ncc2c3c(C(C)Nc4ccc(Cl)nc4-c4cnn(C5CCN(C)CC5)c4)cc(C)cc3c(=O)n(C)c21 (stereo not shown) [Compound 79, 9-(1-((6-Chloro-2-(1-(1-methylpiperidin-4-yl)-1H-pyrazol-4-yl)pyridin-3-yl)amino)ethyl)-3-ethyl-4,7-dimethyl-3,4-dihydro-5H-pyrazolo[3,4-c]isoquinolin-5-one]",< 1000
20,"CCn1ncc2c3c(C(C)Nc4ccc(Cl)nc4N4CCN(C(C)=O)CC4)cc(C)cc3c(=O)n(C)c21 (stereo not shown) [Compound 80, 9-(1-((2-(4-Acetylpiperazin-1-yl)-6-chloropyridin-3-yl)amino)ethyl)-3-ethyl-4,7-dimethyl-3,4-dihydro-5H-pyrazolo[3,4-c]isoquinolin-5-one]",< 1000
21,"Cc1cc(C(C)Nc2ccc(Cl)nc2-c2cnn(C)c2)c2c(c1)c(=O)n(C)c1c2cnn1C1CN(C)C1 (stereo not shown) [Compound 81, 9-(1-((6-Chloro-2-(1-methyl1H-pyrazol-4-yl)pyridin-3-yl)amino)ethyl)-4,7-dimethyl-3-(1-methylazetidin-3-yl)-3,4-dihydro-5H-pyrazolo[3,4-c]isoquinolin-5-one]",< 1000
22,"Cc1cc(C(C)Nc2ccc(Cl)nc2-c2ncn(C)n2)c2c(c1)c(=O)n(C)c1c2cnn1C1CN(C)C1 (stereo not shown) [Compound 82, 9-(1-((6-chloro-2-(1-methyl-1H-1,2,4-triazol-3-yl)pyridin-3-yl)amino)ethyl)-4,7-dimethyl-3-(1-methylazetidin-3-yl)-3,4-dihydro-5H-pyrazolo[3,4-c]isoquinolin-5-one]",< 1000
23,"Cc1cc(C(C)Nc2ccc(Cl)nc2-c2ncn(CCO)n2)c2c(c1)c(=O)n(C)c1c2cnn1C1CN(C)C1 (stereo not shown) [Compound 83, 9-(1-((6-chloro-2-(1-(2-hydroxyethyl)-1H-1,2,4-triazol-3-yl)pyridin-3-yl)amino)ethyl)-4,7-dimethyl-3-(1-methylazetidin-3-yl)-3,4-dihydro-5H-pyrazolo[3,4-c]isoquinolin-5-one]",< 1000
24,"Cc1cc(C(C)Nc2ccc(Cl)nc2-c2cn[nH]c2)c2c(c1)c(=O)n(C)c1c2cnn1C1CN(C)C1 (stereo not shown) [Compound 84, 9-(1-((6-chloro-2-(1H-pyrazol-4-yl)pyridin-3-yl)amino)ethyl)-4,7-dimethyl-3-(1-methylazetidin-3-yl)-3,4-dihydro-5H-pyrazolo[3,4-c]isoquinolin-5-one]",< 1000
25,"Cc1cc(C(C)Nc2ccc(Cl)nc2-c2ccc(=O)n(C)c2)c2c(c1)c(=O)n(C)c1c2cnn1C1CN(C)C1 (stereo not shown) [Compound 85, 9-(1-((6-chloro-1′-methyl-6′-oxo-1′,6′-dihydro-[2,3′-bipyridin]-3-yl)amino)ethyl)-4,7-dimethyl-3-(1-methylazetidin-3-yl)-3,4-dihydro-5H-pyrazolo[3,4-c]isoquinolin-5-one]",< 1000
